Test results reported in patent publication US4546084A, “Biologically pure culture of Actinomadura Sp” (Bristol-Myers Company, priority 1984, dated 1985).

Key:
[1] = system: lysogenic bacterium; experiment: Induction of prophage in lysogenic bacterium (ILB); assay type: cell-based; conditions: significant activity: T/C of >3.0
Protocol: The ability of BBM-1644 to induce prophage in lysogenic bacterium (ILB) was determined by the method of Lein et. al. (Nature 196: 783-784, 1962) using neocarzinostatin as a reference compound. The plaque count was made on agar plates containing test material (T) and control (C). A T/C ratio of the plaque counts of greater than 3 was considered significant and the ILB activity was expressed by the minimum inducing concentration of the test compound.

[2] = system: Bacillus subtilis PCI 219; experiment: In vitro antimicrobial activity, serial two-fold agar dilution; assay type: cell-based; conditions: nutrient agar medium
Protocol: (§1) The antibacterial activity of BBM-1644 was determined by the serial two-fold agar dilution method. Nutrient agar medium was used for gram-positive and gram-negative bacteria; nutrient agar medium containing 4% glycerol for acid-fast bacteria and Sabaouraud agar medium for fungi. The activity was expressed as minimum inhibitory concentration (MIC) in the agar medium and the results are shown in Table 6 along with those of neocarzinostatin.

[3] = system: Streptococcus pyogenes A20201; experiment: as above; assay type: cell-based; conditions: nutrient agar medium
Protocol: as §1

[4] = system: Mycobacterium smegmatis 607 D87; experiment: as above; assay type: cell-based; conditions: nutrient agar medium containing 4% glycerol
Protocol: as §1

[5] = system: Micrococcus flavus D12; experiment: as above; assay type: cell-based; conditions: nutrient agar medium
Protocol: as §1

[6] = system: Staphylococcus aureus Smith; experiment: as above; assay type: cell-based; conditions: nutrient agar medium
Protocol: as §1

[7] = system: Pseudomonas aeruginosa A9930; experiment: as above; assay type: cell-based; conditions: nutrient agar medium
Protocol: as §1

[8] = system: Mycobacterium phlei D88; experiment: as above; assay type: cell-based; conditions: nutrient agar medium containing 4% glycerol
Protocol: as §1

[9] = system: Klebsiella pneumoniae D-11; experiment: as above; assay type: cell-based; conditions: nutrient agar medium
Protocol: as §1

[10] = system: Escherichia coli NIHJ; experiment: as above; assay type: cell-based; conditions: nutrient agar medium
Protocol: as §1

[11] = system: Proteus vulgaris A9436; experiment: as above; assay type: cell-based; conditions: nutrient agar medium
Protocol: as §1

[12] = system: Micrococcus luteus PCI 1001; experiment: as above; assay type: cell-based; conditions: nutrient agar medium
Protocol: as §1

[13] = system: Candida albicans IAM 4888; experiment: as above; assay type: cell-based; conditions: Sabouraud agar medium
Protocol: as §1

[14] = system: Staphylococcus aureus FDA 209P; experiment: as above; assay type: cell-based; conditions: nutrient agar medium
Protocol: as §1

[15] = system: P388 leukemia; experiment: Effect on P388 leukemia in mice, second test (Table 9); assay type: in vivo, CDF1 female mice; conditions: D.1,4&7; for Survivors Day 5: Tox <4/6 alive; for MST % T/C: ≥125 significant
From the text: Antitumor activity of BBM-1644 was also indicated by a second test against P388 leukemia in mice, the results of which are shown below in Table 9. Details of the methods used in this test have been described in Cancer Chemother. Rep. 3: 1-87 (Part 3), 1972.
10^6 ascites cells, ip (plus titration)
Host: CDF1 .female. mice.
Tox: <4/6 mice alive on Day 5.
MST = median survival time.
Effect: % T/C = (MST treated/MST control) × 100.
Criteria: % T/C ≥ 125 considered significant antitumor

[16] = system: lymphocytic leukemia P388; experiment: Antitumor activity in mice against lymphocytic leukemia P388 (Table 8); assay type: in vivo, mice (BDF1 strain); conditions: ip, significant ≥125%
Protocol: The antitumor activity of BBM-1644 was determined in mice (BDF1 strain) against lymphocytic leukemia P388. Each mouse was inoculated intraperitoneally with 3×10^5 cells of the tumor. Graded doses of the antibiotic were administered to mice intraperitoneally 24 hours after tumor implantation. The treatments were given once a day on days 1, 4 and 7 (q3d ×3 schedule) or 9 consecutive days (qd 1→9 schedule).

Neocarzinostatin
ILB activity (T/C) ([1]; 0.1 mcg/ml): 0.7 | ILB activity (T/C) ([1]; 1 mcg/ml): 10.8 | ILB activity (T/C) ([1]; 10 mcg/ml): 20.4 | ILB activity (T/C) ([1]; 100 mcg/ml): 28.6 | MIC [2]: 3.1 µg/mL | MIC [3]: 3.1 µg/mL | MIC [4]: 50 µg/mL | MIC [5]: 1.6 µg/mL | MIC [6]: 0.8 µg/mL | MIC [7]: > 100 µg/mL | MIC [8]: 12.5 µg/mL | MIC [9]: > 100 µg/mL | MIC [10]: > 100 µg/mL | MIC [11]: > 100 µg/mL | MIC [12]: 1.6 µg/mL | MIC [13]: > 100 µg/mL | MIC [14]: 1.6 µg/mL | AWC d.6 ([15]; 0.05 mg/kg/inj IP): -1.7 gm | MST ([15]; 0.05 mg/kg/inj IP): 12.0 days | Survivors Day 5 ([15]; 0.05 mg/kg/inj IP): 6/6 | MST % T/C ([15]; 0.05 mg/kg/inj IP): 133% | AWC d.6 ([15]; 0.1 mg/kg/inj IP): -1.2 gm | MST ([15]; 0.1 mg/kg/inj IP): 13.5 days | Survivors Day 5 ([15]; 0.1 mg/kg/inj IP): 6/6 | MST % T/C ([15]; 0.1 mg/kg/inj IP): 150% | AWC d.6 ([15]; 0.2 mg/kg/inj IP): -2.5 gm | MST ([15]; 0.2 mg/kg/inj IP): 15.0 days | Survivors Day 5 ([15]; 0.2 mg/kg/inj IP): 6/6 | MST % T/C ([15]; 0.2 mg/kg/inj IP): 167% | AWC d.6 ([15]; 0.4 mg/kg/inj IP): -3.2 gm | MST ([15]; 0.4 mg/kg/inj IP): 15.5 days | Survivors Day 5 ([15]; 0.4 mg/kg/inj IP): 6/6 | MST % T/C ([15]; 0.4 mg/kg/inj IP): 172% | AWC d.6 ([15]; 0.8 mg/kg/inj IP): -4.3 gm | MST ([15]; 0.8 mg/kg/inj IP): 10.5 days | Survivors Day 5 ([15]; 0.8 mg/kg/inj IP): 6/6 | MST % T/C ([15]; 0.8 mg/kg/inj IP): 117% | AWC d.6 ([15]; 1.6 mg/kg/inj IP): -4.8 gm | MST ([15]; 1.6 mg/kg/inj IP): 8.0 days | Survivors Day 5 ([15]; 1.6 mg/kg/inj IP): 6/6 | MST % T/C ([15]; 1.6 mg/kg/inj IP): 89% | T/C (%) in MST ([16]; 0.01 mg/kg/day, gd 1→9): 113% | T/C (%) in MST ([16]; 0.03 mg/kg/day, gd 1→9): 125% | T/C (%) in MST ([16]; 0.03 mg/kg/day, q3d × 3): 113% | T/C (%) in MST ([16]; 0.1 mg/kg/day, gd 1→9): 138% | T/C (%) in MST ([16]; 0.1 mg/kg/day, q3d × 3): 125% | T/C (%) in MST ([16]; 0.3 mg/kg/day, gd 1→9): 163% | T/C (%) in MST ([16]; 0.3 mg/kg/day, q3d × 3): 150% | T/C (%) in MST ([16]; 1 mg/kg/day, q3d × 3): 163%
